# Experimental data reported in patent US8809343B2, “Pyrimidine derivative, preparation method and use thereof” (Fudan University, priority 2008, dated 2014).
# Read-outs that look alike come from different tables or passages of the source.
# What was measured:
# MT-4 cells = test: Cell toxicity in uninfected MT-4 cells (MTT method); type: cell-based
# Description: (§1) Anti-virus activity of cells in vitro was determined by Rega Institute for Medical of […] Katholleke University, consisting mainly: inhibitory activity towards HIV-infected MT-4 cells and cell toxicity. The method is described below: exert the compound on the HIV-infected ME-4 cells, and determine the protection of the drug on the cell lesions induced by HIV at varied HIV-infection intervals, calculate the half effective concentration IC50, the required concentration that protect 50% of cells from cell lesions induced by HIV. Toxicity determination is carried out in parallel with anti-HIV activity experiments, also in the cultured MT-4 cells, determine the CC50, the concentration that leads 50% of uninfected cells to cell lesions, and calculate the selectivity index SI=CC50/IC50 with the MTT method.
# (§2) The detailed operation is as follows: the compound is dissolved with DMSO or water and diluted with phosphate buffer saline, 3×10^5 MT-4 cells are cultured with 100 μL various concentrations of compounds for 1 h, then 100 μL suitable virus dilution is added to the compound, and the cells are cultured at 37° C. for 1 h. After being washed for 3 times, the cells are suspended again in the culture media containing or not compounds individually. Subsequently, the cells are transferred to the atmosphere containing 5% CO2 and cultured for 7 days at 37° C., and culture media containing or not compounds are used to replace or supplement the culture solution on the third day after infection. Kinds of culture conditions should be duplicated. The cell lesions caused by virus are monitored with reverse light microscopy everyday. Typically, the virus dilution applied in the present experiments generally cause cell lesion on the fifth day after infection. […] It should be emphasized that, when the compound is poorly water-soluble and can only be dissolved in DMSO, the ratio of DMSO to water is generally below 10% (the final concentration of DMSO in MT-4 cell culture media is smaller than 2%). Because DMSO can influence the anti-virus activity of the tested compounds, blank tests on the solution containing the same concentration of DMSO should be conducted in parallel. Additionally, the final concentration of DMSO is far below the concentration required to influence the replication of HIV-1 in T cells.
# HIV-1 IIIB strain = test: Anti-HIV activity: protection of HIV-infected MT-4 cells from virus-induced cell lesions; type: cell-based; conditions: for SI (Selectivity index, the ratio of CC50/IC50): HIV-1 IIIB
# Description: as §1
# (§3) Anti-HIV activity of various compounds is monitored by the inhibitory efficiency of drugs on the cell lesions induced by HIV. Carry out cell culture with MT-4 cells. The adopted virus strains are HIV-1 IIIB strain and drug-resistant viral strain of […].
# as §2
# [1] = system: drug-resistant viral strain of L103N+Y181C; test: Anti-HIV activity in MT-4 cells, drug-resistant viral strain; type: cell-based, HIV-1; conditions: MT-4 cells, Table 1; read-out: EC50 103N + 181C
# Description: as §1, §3, §2
# [2] = Cell toxicity in uninfected MT-4 cells (MTT method); type: cell-based; conditions: human, uninfected MT-4 cells, Table 3
# Description: as §1, §2
# [3] = MT-4 cells, Table 3, read-out: EC50 HIV-1(IIIB)
# [4] = MT-4 cells, Table 1, read-out: EC50 HIV-1(IIIB)
# [5] = Human immunodeficiency virus 1, IIIB, MT4, read-out: EC50 HIV-1(IIIB)
SMILES,CC50 (MT-4 cells; Table 3),EC50 (HIV-1 IIIB strain; [3]),further results
CCOc1cc(C#N)cc(OC)c1Oc1nc(Nc2ccc(C#N)cc2)nc2ccccc12 [Compound 52],> 130000 nM,2.6 nM,–
N#Cc1ccc(Nc2nc(Sc3ccccc3)c3ccccc3n2)cc1 [Compound 44],494000 nM,752 nM,–
COc1cc(C#N)cc(OC)c1Oc1nc(Nc2ccc(C#N)cc2)nc2ccccc12 [Compound 41],> 93100 nM,2.2 nM,–
COc1cc(C#N)cc(Cl)c1Oc1nc(Nc2ccc(C#N)cc2)nc2ccccc12 [Compound 48],> 173000 nM,5.6 nM,–
COc1cc(C#N)cc(OC(C)C)c1Oc1nc(Nc2ccc(C#N)cc2)nc2ccccc12 [Compound 50],> 65800 nM,6.7 nM,–
Cc1cc(C)c(Oc2nc(Nc3ccc(C#N)cc3)nc3ccc(Cl)cc23)c(C)c1 [Compound 54],147000 nM,1.8 nM,–
Cc1cc(Br)c(Oc2nc(Nc3ccc(C#N)cc3)nc3ccccc23)c(Br)c1 [Compound 35],23400 nM,15 nM,–
Cc1cc2ccccc2c(C)c1Oc1ccnc(Nc2ccc(C#N)cc2)n1 [Compound 12],–,–,EC50 [1]: 1170 nM; CC50 (MT-4 cells; Table 1): 313000 nM; EC50 (HIV-1 IIIB strain; [4]): 4.1 nM
Cc1c(Cl)nc(Nc2ccc(C#N)cc2)nc1Oc1cccc2cccnc12 [Compound 6],–,–,CC50 (MT-4 cells; Table 1): 44700 nM; EC50 (HIV-1 IIIB strain; [4]): 25.7 nM
CNc1nc(Nc2ccc(C#N)cc2)nc(Oc2ccc3cc(C#N)ccc3c2)c1C(C)C [Compound 19],–,–,EC50 [1]: 4580 nM; CC50 (MT-4 cells; Table 1): 265000 nM; EC50 (HIV-1 IIIB strain; [4]): 7.6 nM
Cc1cccc(C)c1Oc1nc(Nc2ccc(C#N)cc2)nc2ccccc12 [Compound 43],> 640000 nM,46 nM,–
N#Cc1ccc(Nc2nccc(Oc3cc4ccc(C#N)cc4cc3Br)n2)cc1 [Compound 16],–,–,EC50 [1]: > 56500 nM; CC50 (MT-4 cells; Table 1): 55400 nM; EC50 (HIV-1 IIIB strain; [4]): 1.1 nM
CCCOc1cc(C#N)cc(OCC)c1Oc1nc(Nc2ccc(C#N)cc2)nc2ccccc12 [Compound 47],> 66700 nM,3.2 nM,–
Cc1cc(C#N)cc(C)c1Oc1nc(Nc2ccc(C#N)cc2)nc2ccccc12 [Compound 45],> 172000 nM,3.6 nM,–
"Cc1cn([C@H]2C[C@H](N=[N+]=[N-])[C@@H](CO)O2)c(=O)[nH]c1=O [DDN/AZT, reference compound]",> 93500 nM,5.17 nM,–
CCOc1cc(C#N)cc(Cl)c1Oc1nc(Nc2ccc(C#N)cc2)nc2ccccc12 [Compound 49],> 594000 nM,5.9 nM,–
Cc1cccc(Oc2nc(Nc3ccc(C#N)cc3)nc3ccccc23)c1 [Compound 27],–,–,"CC50 at 7 days [2]: > 352000 nM; SI (Selectivity index, the ratio of CC50/IC50) (HIV-1 IIIB strain; MT-4 cells, Table 3): >563; EC50 (HIV-1 IIIB strain; [5]): 625 nM"
Cc1cc(C)c(Oc2nc(Nc3ccc(C#N)cc3)nc3ccccc23)c(C)c1 [Compound 36],> 34100 nM,23 nM,–
N#Cc1ccc(Nc2nc(Oc3ccccc3Cl)c3ccccc3n2)cc1 [Compound 39],343000 nM,57 nM,–
N#Cc1ccc(Nc2nc(Oc3c(Br)cc(Br)cc3Br)c3ccccc3n2)cc1 [Compound 34],71000 nM,23 nM,–
Cc1cc(Br)cc(Br)c1Oc1nc(Nc2ccc(C#N)cc2)nc2ccccc12 [Compound 32],–,–,"CC50 at 7 days [2]: 157000 nM; SI (Selectivity index, the ratio of CC50/IC50) (HIV-1 IIIB strain; MT-4 cells, Table 3): 8917; EC50 (HIV-1 IIIB strain; [5]): 17.6 nM"
N#Cc1ccc(Nc2nc(Oc3ccc(Cl)cc3)c3ccccc3n2)cc1 [Compound 40],> 396000 nM,167 nM,–
Cc1cc2ccccc2cc1Oc1ccnc(Nc2ccc(C#N)cc2)n1 [Compound 11],–,–,EC50 [1]: > 70900 nM; CC50 (MT-4 cells; Table 1): 71200 nM; EC50 (HIV-1 IIIB strain; [4]): 2.3 nM
N#Cc1ccc(Nc2nccc(Oc3ccc4cc(C#N)ccc4c3Br)n2)cc1 [Compound 15],–,–,EC50 [1]: 240 nM; CC50 (MT-4 cells; Table 1): 290000 nM; EC50 (HIV-1 IIIB strain; [4]): 1.6 nM
N#Cc1ccc(Nc2nc(Oc3ccccc3)c3ccccc3n2)cc1 [Compound 30],–,–,"CC50 at 7 days [2]: > 365000 nM; SI (Selectivity index, the ratio of CC50/IC50) (HIV-1 IIIB strain; MT-4 cells, Table 3): >411; EC50 (HIV-1 IIIB strain; [5]): 887 nM"
